Format in all cases: ADME, tissue-based
The test system of series [1] is Brain. The experiment in a line: Drug uptake in wild-type mouse brain by Positron emission tomography. To be noted: in vivo.
The subject of series [2] is Brain. The experiment in a line: Drug uptake in P-gp/Bcrp knockout mouse brain by Positron emission tomography. The following applies: in vivo.
Series [3] has as its system Brain. The series can be described thus: Drug uptake in wild-type mouse brain after 60 mins. To be noted: in vivo, 1 h.
For series [4], the system named is Brain. The series can be described thus: Drug uptake in P-gp/Bcrp knockout mouse brain after 60 mins. To be noted: in vivo, 1 h.

With `CNC(=O)c1cc(Oc2ccc(N[11C](=O)Nc3ccc(Cl)c(C(F)(F)F)c3)cc2)ccn1` [[11C]-SORAFENIB], the Drug uptake entry in series [1] and in series [2] was “Active” each time. Further, the values for the SUV in series [3] and in series [4] were 18.83 and 6.72, respectively.

The values above are taken from ChEMBL document CHEMBL1759848, “[11C]sorafenib: radiosynthesis and preliminary PET study of brain uptake in P-gp/Bcrp knockout mice” (Bioorg Med Chem Lett, 2011).
